Assay results as given in publication PMC12117998, “First Steps toward the Design of Peptides that Influence the Intracellular Palmitoylation Machinery” (Chembiochem, 2025).
No end group written: not given here.

Assays:
Format in all cases: cell-based
HeLa cells [1] = assay: Live‐cell fluorescence imaging of peptide uptake
Experimental: HeLa (40,000), MDA‐MB‐231 (30,000), or HFF1 (55,000) cells were seeded into an 8‐well ibidi. Cells were treated for 30 min with 5 μM of CF‐labeled peptide diluted in the appropriate serum‐free media. The cell nuclei were stained with the Hoechst 33342 nuclear dye for the last 10 min of the total incubation time. Afterward, cells were washed three to four times using serum‐free medium and finally, medium containing FBS was added for the microscopy. Live fluorescence microscopy analyses were performed on the LSM 980 with Airyscan 2 Inverse Confocal Laser Scanning Microscope (Carl Zeiss) on a 63X Plan‐Apochromat oil objective (NA 1.4, Zeiss) at 37 °C and 5% CO2 or on the BZ‐X810 (Keyence) using a 60X Plan‐Apochromat oil objective (NA 1.4, Keyence). Images were cropped and processed using Fiji.
Hela cells (15,000) were seeded into a 96-well plate. Cells were treated with suitable peptide concentrations diluted in the corresponding serum-free culture medium. After 1 h peptide incubation under standard growth conditions, the positive control was either directly treated with lysis solution or the supernatant was exchanged for serum-free culture medium and the plate was incubated for further 5 h under growing conditions. The CytoTox-ONE™ Reagent was added and incubated at RT for 10 minutes. Finally, the Stop Solution was added and the fluorescence was measured at 595 nm (λex = 550 nm) on an infinite M200 plate reader (Tecan) and normalized to the positive control cells.
Red blood cells (RBCs) were washed three times in PBS by centrifug ing at 4 °C and 3,000 x g for 5 min and diluted to 5% in PBS. The desired peptide concentrations diluted in PBS were added into a 96-well plate. Next, 5% RBCs in PBS were added into the wells and incubated for 24 h at 37 °C and 5% CO2. As a positive control, RBCs were mixed with 10% Triton X-100 in PBS. […] Lastly, the absorption (λ=560 nm) was measured on the infinite M200 plate reader (Tecan). For the evaluation, the measured absorption of the Triton-X-100 treatment was set to a hemolysis rate […]

mEGFP‐HRas = assay: Fluorescence microscopy of mEGFP‐HRas localization; conditions: HeLa mEGFP‐HRas cells, doxycycline-induced, 100 μM peptide, 6 h, n = 3 (Figure 8A)
Description: mEGFP‐HRas was amplified from a plasmid gifted from Karel Svoboda^[ [69] ^] (Addgene plasmid # 18662) using the primers 5′‐gcgGGTACCgccaccatggtgagcaagg‐3′ and 5′‐gcgGCGGCCGCtcaggagagcacacactt‐3′. KpnI and NotI restriction sites (capital letter) were used and the construct was cloned into the pcDNA5 FRT‐TO vector to generate an inducible T‐REx‐HeLa cell line using the Flp‐In T‐REx System (Invitrogen). The plasmid was verified by sequencing. The construct was co‐transfected together with the pOG44 vector using the FuGENE HD transfection reagent (Promega). Positive clones were selected with DMEM medium supplemented with 10% FCS, 500 μg ml^−1 penicillin/streptomycin 100 μg ml^−1 hygromycin and 10 μg ml^−1 blasticidin and verified by fluorescence microscopy and immunoblot.
A total of 35,000 HeLa mEGFP‐HRas cells were seeded into an 8‐well plate. Cells were induced with […] ml^−1 doxycycline and incubated for around 15 h under standard growth conditions. Afterward, cells were treated for 6 h with 100 μM peptide diluted in serum‐free medium. And, 10 min prior to the end of the incubation time, the Hoechst 33342 nuclear dye was added. Cells were washed with serum‐free media. Finally, complete medium was added and cells were imaged on the UltraView VoX Spinning Disk Confocal Microscope (Perkin Elmer) on a 60X oil objective at 37 °C and 5% CO2. Images were cropped and processed using Fiji.

HeLa cells [2] = assay: Co‐localization studies (confocal microscopy, PCC and MOC); conditions: 2 h, 5 μM CF‐DC‐2, CellLight ER‐RFP, mean ± SD of ≥37 cells, n = 2
Experimental: HeLa cells (30,000–40,000) were seeded into an 8‐well ibidi. For lysosomal and lipid droplet analysis, cells were treated for 30 min with 5 μM of CF‐labeled peptide combined with either 100 nM LysoTracker Red DND‐99 (Invitrogen) or a 1:1000 solution of distyryl Bodipy lipid droplet stain synthesized and kindly provided by Engelhardt et al.^[ [67] ^] diluted in serum‐free media under standard growth conditions. For Golgi analysis, cells were treated for 2 h with 5 μM CF‐labeled peptide under standard growth conditions. For the last 30 min of the incubation period, 1:100 BODIPY TR ceramide complexed to bovine serum albumine (BSA) (Invitrogen) was directly diluted into the well and incubated for the last 30 min together with the peptide. For ER staining, CellLight ER‐RFP, BacMam 2.0 (Invitrogen), was added to the cells and incubated overnight under standard growth conditions. The next day, the cells were treated for 2 h with 5 μM CF‐labeled peptides as described earlier. After the peptide and stain incubation, cells were washed three to four times with serum‐free medium. […] Pearson and Manders’ Coefficients were calculated using the JaCoP analysis tool.^[ [68] ^] For Golgi analysis, no PCC or MOC was determined as the unedited images contained a strong background signal.

Q: “GLRKRLRKFRNKKMDHHCPW-NH2 [DC‐2, CPP sC18* fused to the DHHC motif derived from ZDHHC2/3/6/7/15/16/20]” was tested. Which “time‐lapse cellular uptake” value (HeLa cells [1]; 5 μM CF-DC-2, imaged every 10 sec for 30 min (Video 1)) did it give?
A: The value was “rapid cellular uptake”.

Q: And the intracellular uptake pattern (HeLa cells [1]; 30 min, 5 μM CF‐labeled peptides, confocal laser scanning microscopy (Figure 3G))?
A: The intracellular uptake pattern was “diffuse cytosolic pattern”.

Q: What about the HRas localization (mEGFP‐HRas) of the same substance?
A: Its HRas localization is “altered HRas pattern”.

Q: What about the “Mander's overlap coefficient (MOC), ER” value (HeLa cells [2]) of the same substance?
A: Its value is 0.60 ± 0.20.

Q: And the “Pearson correlation coefficient (PCC), ER” value (HeLa cells [2])?
A: The value was 0.37 ± 0.10.
